These results are taken from patent US20040024024A1, “Aromatic sulfone hydroxamates and their use as protease inhibitors” (priority 2001, published 2004).

Assay in all cases: In vitro MMP inhibition, IC50 determination (fluorogenic substrate I)
What all share (assay type): biochemical
Common to all, as to conditions: value outside parenthesis

One assay deals with T1, Human recombinant MMP-9 (Homo sapiens, UniProt P14780).
T1 construct: made in house; host or cells: MMP-9-transfected HT1080 cells (spent media)
T1 sequence (P14780 107-707 limits assumed): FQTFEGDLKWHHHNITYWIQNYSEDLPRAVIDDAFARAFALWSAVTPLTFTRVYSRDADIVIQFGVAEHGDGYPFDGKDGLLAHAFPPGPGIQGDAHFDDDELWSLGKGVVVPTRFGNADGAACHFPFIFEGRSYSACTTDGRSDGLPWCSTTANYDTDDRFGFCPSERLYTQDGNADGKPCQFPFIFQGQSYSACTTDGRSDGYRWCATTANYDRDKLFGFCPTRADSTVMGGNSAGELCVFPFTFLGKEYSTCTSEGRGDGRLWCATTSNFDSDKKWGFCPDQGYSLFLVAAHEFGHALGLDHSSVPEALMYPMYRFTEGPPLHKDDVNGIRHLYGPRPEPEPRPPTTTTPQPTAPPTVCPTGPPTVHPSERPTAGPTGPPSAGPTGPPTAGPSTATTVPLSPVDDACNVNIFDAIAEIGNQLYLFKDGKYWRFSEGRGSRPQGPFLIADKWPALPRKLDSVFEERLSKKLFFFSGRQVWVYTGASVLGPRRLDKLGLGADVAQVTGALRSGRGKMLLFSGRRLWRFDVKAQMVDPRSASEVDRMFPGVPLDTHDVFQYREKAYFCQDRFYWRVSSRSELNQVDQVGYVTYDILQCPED
In short, it runs like this: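 Reduction in fluorescence (328 nm excitation, 415 nm emission) from cleavage of 4 μM quenched peptide substrate I, measured at room temperature against inhibitor concentration, gave IC50. Enzyme: trypsin- or APMA-activated MMP-9 purified from transfected HT1080 medium; buffer 100 mM Tris, 100 mM NaCl, 10 mM CaCl2, pH 7.5.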

A further assay has as its target T2, Human recombinant MMP-2 (Homo sapiens, UniProt P08253).
T2 construct: made in house; host or cells: MMP-2-transfected p2AHT2 cells
T2 sequence (P08253 110-660): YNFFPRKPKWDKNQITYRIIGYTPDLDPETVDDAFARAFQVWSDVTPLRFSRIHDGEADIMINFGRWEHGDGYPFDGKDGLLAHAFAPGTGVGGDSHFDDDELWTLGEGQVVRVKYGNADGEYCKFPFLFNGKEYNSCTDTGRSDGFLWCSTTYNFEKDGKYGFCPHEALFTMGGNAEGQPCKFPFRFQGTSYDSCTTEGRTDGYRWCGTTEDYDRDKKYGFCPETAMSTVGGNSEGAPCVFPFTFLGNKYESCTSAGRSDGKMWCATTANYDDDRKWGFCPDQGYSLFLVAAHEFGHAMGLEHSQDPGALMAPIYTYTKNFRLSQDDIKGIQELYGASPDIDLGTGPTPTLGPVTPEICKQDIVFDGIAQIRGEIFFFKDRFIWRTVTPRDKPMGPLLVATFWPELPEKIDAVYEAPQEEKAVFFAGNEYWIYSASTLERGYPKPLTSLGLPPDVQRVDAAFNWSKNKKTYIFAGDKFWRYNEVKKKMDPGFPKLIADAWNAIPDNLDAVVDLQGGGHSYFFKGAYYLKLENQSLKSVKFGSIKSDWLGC
In short, it runs like this: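 IC50 was derived from the concentration-dependent fall in fluorescence (ex 328, em 415 nm) on Gly-Leu cleavage of 4 μM MCA/Dpa-quenched substrate I. Assays ran at room temperature in pH 7.5 Tris/NaCl/CaCl2/Brij buffer with MMP-2 activated by trypsin or APMA; inhibitors were diluted from 1% DMSO stocks.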

The target of a further assay is T3, Human recombinant MMP-13 (Homo sapiens, UniProt P45452).
T3 construct: made in house; host or cells: baculovirus / insect cells
Put shortly: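 Fluorescence at 415 nm (excitation 328 nm) reports Gly-Leu cleavage of 4 μM quenched methoxycoumarin peptide substrate I. Human recombinant MMP-13, activated by trypsin or APMA, was incubated at room temperature with varied inhibitor concentrations in pH 7.5 Tris/NaCl/CaCl2 buffer; IC50 derived from reduced fluorescence.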

The target in the next assay is T4, Human recombinant MMP-14 (Homo sapiens, UniProt P50281).
T4 construct: The catalytic domain enzyme was expressed in E. coli inclusion bodies, solubilized in urea; made in house
In short, it runs like this: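 IC50 came from reduced fluorescence (ex 328 nm, em 415 nm) as inhibitor concentration rose, with 4 μM substrate I cleaved at Gly-Leu. Room-temperature incubation in pH 7.5 Tris buffer with 10 mM CaCl2; the E. coli-expressed, refolded MMP-14 catalytic domain was activated with trypsin or APMA.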

The next assay concerns the target T5, Human recombinant MMP-1 (Homo sapiens, UniProt P03956).
T5 construct: made in house; host or cells: MMP-1-transfected HT-1080 cells (spent media)
T5 sequence (P03956 100-469): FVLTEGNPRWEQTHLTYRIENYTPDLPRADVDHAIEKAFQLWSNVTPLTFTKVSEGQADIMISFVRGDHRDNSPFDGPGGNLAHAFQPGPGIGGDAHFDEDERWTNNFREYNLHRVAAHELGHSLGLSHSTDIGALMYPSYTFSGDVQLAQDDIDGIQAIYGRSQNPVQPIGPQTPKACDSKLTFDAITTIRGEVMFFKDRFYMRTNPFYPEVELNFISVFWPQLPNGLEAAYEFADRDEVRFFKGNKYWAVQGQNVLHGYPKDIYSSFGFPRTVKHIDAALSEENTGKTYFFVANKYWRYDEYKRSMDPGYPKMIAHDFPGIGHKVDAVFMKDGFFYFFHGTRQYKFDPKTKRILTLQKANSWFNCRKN
In short, it runs like this:
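Inhibitor dilutions were made in 100 mM Tris-HCl/100 mM NaCl/10 mM CaCl2 buffer, pH 7.5, and incubated at room temperature with activated proenzyme (from transfected HT-1080 media; APMA or trypsin) and 4 μM quenched methoxycoumarin peptide substrate. Loss of 415 nm fluorescence (328 nm excitation) against concentration gave IC50.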

Turning to `O=C(NO)C1(S(=O)(=O)c2ccc(OCCCc3nnc(-c4ccc(-c5ccccc5)cc4)o3)cc2)CCOCC1` [Example 257], the IC50 is 6230 nM at Human recombinant MMP-9; 174 nM at Human recombinant MMP-2; 0.5 nM on Human recombinant MMP-13; over 10000 nM at Human recombinant MMP-14; over 10000 nM at Human recombinant MMP-1.

For `Cc1cccc(-c2nnc(CCCOc3ccc(S(=O)(=O)C4(C(=O)NO)CCOCC4)cc3)o2)c1` [Example 258], the IC50 on Human recombinant MMP-9 was 1960 nM; at Human recombinant MMP-2 it was 173 nM; at Human recombinant MMP-13, 1.7 nM; on Human recombinant MMP-14, over 10000 nM; at Human recombinant MMP-1 it was over 10000 nM.

For the compound `Cc1ccc(-c2nnc(CCCOc3ccc(S(=O)(=O)C4(C(=O)NO)CCOCC4)cc3)o2)cc1` [Example 259], the IC50 is 1880 nM on Human recombinant MMP-9; 201 nM at Human recombinant MMP-2; 0.7 nM on Human recombinant MMP-13; over 10000 nM on Human recombinant MMP-14; 7260 nM at Human recombinant MMP-1.

As to `O=C(NO)C1(S(=O)(=O)c2ccc(OCCCc3nnc(-c4ccc(Cl)cc4)o3)cc2)CCOCC1` [Example 260], the IC50 at Human recombinant MMP-9 was 391 nM; on Human recombinant MMP-2, 13.2 nM; at Human recombinant MMP-13, 1.8 nM; on Human recombinant MMP-14 it was over 10000 nM; at Human recombinant MMP-1, 1160 nM.

Turning to `O=C(NO)C1(S(=O)(=O)c2ccc(OCCCc3nnc(-c4ccccc4Cl)o3)cc2)CCOCC1` [Example 261], the IC50 on Human recombinant MMP-9 was 1190 nM; on Human recombinant MMP-2, 178 nM; on Human recombinant MMP-13, 1.9 nM; on Human recombinant MMP-14 it was over 10000 nM; on Human recombinant MMP-1, over 10000 nM.

As for `O=C(NO)C1(S(=O)(=O)c2ccc(OCCCc3nnc(CC4CCCCC4)o3)cc2)CCOCC1` [Example 262], the IC50 at Human recombinant MMP-9 is 1700 nM; at Human recombinant MMP-2, 118 nM; on Human recombinant MMP-13 it was 3 nM; at Human recombinant MMP-14, over 10000 nM; at Human recombinant MMP-1, over 10000 nM.

With `CCOc1ccccc1-c1noc(CCCOc2ccc(S(=O)(=O)C3(C(=O)NO)CCOCC3)cc2)n1` [Example 264], the IC50 at Human recombinant MMP-9 is 287 nM; on Human recombinant MMP-2, 163 nM; on Human recombinant MMP-13, 5.3 nM; at Human recombinant MMP-14 it was over 10000 nM; at Human recombinant MMP-1, over 10000 nM.

In the case of `O=C(NO)C1(S(=O)(=O)c2ccc(OCCCc3nc(-c4cccc(OC(F)(F)F)c4)no3)cc2)CCOCC1` [Example 266], the IC50 at Human recombinant MMP-9 was 203 nM; at Human recombinant MMP-2 it was 391 nM; on Human recombinant MMP-13, 9.1 nM; on Human recombinant MMP-14, over 10000 nM; at Human recombinant MMP-1, over 10000 nM.

`CCOc1ccc(-c2noc(CCCOc3ccc(S(=O)(=O)C4(C(=O)NO)CCN(C5CC5)CC4)cc3)n2)cc1` [Example 268]: the IC50 at Human recombinant MMP-9 is 674 nM; on Human recombinant MMP-2, 126 nM; at Human recombinant MMP-13 it was 2.5 nM; at Human recombinant MMP-14, over 10000 nM; at Human recombinant MMP-1, over 10000 nM.

Consider `O=C(NO)C1(S(=O)(=O)c2ccc(OCCCc3cccc(-c4ccccc4)c3)cc2)CCOCC1` [Example 269], for which the IC50 is 2750 nM on Human recombinant MMP-9; 898 nM at Human recombinant MMP-2; 1.8 nM on Human recombinant MMP-13; over 10000 nM on Human recombinant MMP-14; over 10000 nM at Human recombinant MMP-1.

Regarding `CC1CC(C)CN(S(=O)(=O)CCCOc2ccc(S(=O)(=O)C3(C(=O)NO)CCOCC3)cc2)C1` (stereo not shown) [Example 271], the half-maximal inhibitory concentration (IC50) on Human recombinant MMP-9 was 532 nM; at Human recombinant MMP-2, 8.7 nM; on Human recombinant MMP-13 it was 2.9 nM; on Human recombinant MMP-14, over 10000 nM; at Human recombinant MMP-1, over 10000 nM.

With `O=C(CCCOc1ccc(S(=O)(=O)C2(C(=O)NO)CCOCC2)cc1)NNC(=O)c1ccc(Cl)cc1` [Example 272], the IC50 at Human recombinant MMP-9 is 152 nM; at Human recombinant MMP-2 it was 4.2 nM; on Human recombinant MMP-13, 2.8 nM; at Human recombinant MMP-14, over 10000 nM; at Human recombinant MMP-1, 399 nM.

In the case of `COC(=O)CCCOc1ccc(S(=O)(=O)C2(C(=O)NO)CCOCC2)cc1` [Example 274], the IC50 is 33.6 nM at Human recombinant MMP-9; 15.4 nM on Human recombinant MMP-2; 4.1 nM on Human recombinant MMP-13; over 10000 nM on Human recombinant MMP-14; 9860 nM at Human recombinant MMP-1.

In the case of `CC(CCOc1ccc(S(=O)(=O)C2(C(=O)NO)CCOCC2)cc1)C(=O)c1cccs1` (stereo not shown) [Example 276], the IC50 was determined as 196 nM on Human recombinant MMP-9; 17.4 nM at Human recombinant MMP-2; 2.8 nM on Human recombinant MMP-13; 7020 nM on Human recombinant MMP-14; 6670 nM at Human recombinant MMP-1.

Regarding `COc1ccc(C(=O)CCCCOc2ccc(S(=O)(=O)C3(C(=O)NO)CCN(C4CC4)CC3)cc2)cc1` [Example 277], the IC50 at Human recombinant MMP-9 was 41.5 nM; at Human recombinant MMP-2, 3.5 nM; on Human recombinant MMP-13 it was 0.2 nM; on Human recombinant MMP-14 it was over 10000 nM; on Human recombinant MMP-1, over 10000 nM.

In the case of `CC(C)(C)c1ccc(-c2nnc(CCCOc3ccc(S(=O)(=O)C4(C(=O)NO)CCOCC4)cc3)o2)cc1` [Example 278], the IC50 at Human recombinant MMP-9 is 494 nM; at Human recombinant MMP-2 it was 208 nM; on Human recombinant MMP-13, 3.7 nM; on Human recombinant MMP-14, over 10000 nM; at Human recombinant MMP-1, over 10000 nM.

In the case of `COc1cccc(-c2nnc(CCCOc3ccc(S(=O)(=O)C4(C(=O)NO)CCOCC4)cc3)o2)c1` [Example 280], the IC50 at Human recombinant MMP-9 was 2030 nM; at Human recombinant MMP-2 it was 170 nM; at Human recombinant MMP-13, 1.5 nM; on Human recombinant MMP-14, over 10000 nM; at Human recombinant MMP-1, over 10000 nM.

With `O=C(NO)C1(S(=O)(=O)c2ccc(OCCSc3nc4cc(Cl)ccc4s3)cc2)CCOCC1` [Example 281], the IC50 was 276 nM on Human recombinant MMP-9; 70.4 nM on Human recombinant MMP-2; 1.3 nM at Human recombinant MMP-13; over 10000 nM at Human recombinant MMP-14; over 10000 nM on Human recombinant MMP-1.

For `COc1ccc2sc(SCCOc3ccc(S(=O)(=O)C4(C(=O)NO)CCOCC4)cc3)nc2c1` [Example 282], the IC50 is 704 nM at Human recombinant MMP-9; 43.3 nM at Human recombinant MMP-2; 2.6 nM on Human recombinant MMP-13; over 10000 nM at Human recombinant MMP-14; over 10000 nM on Human recombinant MMP-1.

On to `O=C(NO)C1(S(=O)(=O)c2ccc(OCCCSc3nc4cc(Cl)ccc4s3)cc2)CCOCC1` [Example 284], for which the IC50 on Human recombinant MMP-9 is 18.5 nM; on Human recombinant MMP-2 it was 10.1 nM; at Human recombinant MMP-13, 1.1 nM; at Human recombinant MMP-14 it was over 10000 nM; on Human recombinant MMP-1, over 10000 nM.

As for `COc1ccc2sc(SCCCOc3ccc(S(=O)(=O)C4(C(=O)NO)CCOCC4)cc3)nc2c1` [Example 285], the IC50 is 23.6 nM on Human recombinant MMP-9; 16.7 nM at Human recombinant MMP-2; 1.8 nM at Human recombinant MMP-13; over 10000 nM at Human recombinant MMP-14; over 10000 nM at Human recombinant MMP-1.

`Cc1cc(C)nc(SCCCOc2ccc(S(=O)(=O)C3(C(=O)NO)CCOCC3)cc2)n1` [Example 286]: the IC50 on Human recombinant MMP-9 is 1130 nM; on Human recombinant MMP-2 it was 74.9 nM; on Human recombinant MMP-13, 4 nM; on Human recombinant MMP-14 it was over 10000 nM; at Human recombinant MMP-1, over 10000 nM.

On to `CCOc1ccc2nc(SCCCOc3ccc(S(=O)(=O)C4(C(=O)NO)CCOCC4)cc3)sc2c1` [Example 287], for which the IC50 was 16.4 nM on Human recombinant MMP-9; 3.6 nM at Human recombinant MMP-2; 0.8 nM on Human recombinant MMP-13; over 10000 nM at Human recombinant MMP-14; over 10000 nM on Human recombinant MMP-1.
